Experimental data from patent US20230295109A1, “PYRIDINONE COMPOUNDS FOR THE TREATMENT OF AUTOIMMUNE DISEASE” (F. Hoffmann-La Roche AG, priority 2020, published 2023).
pIC50: −log10 of the molar value. Like-named read-outs stand apart in the source and are kept apart here.

Key:
[1] = Single dose pharmacokinetics (PK) study in male Wister-Han rats; assay type: in vivo
Protocol: Pharmacokinetic properties of selected compounds were assessed by single dose PK studies in Male Wister-Han Rats (vendor: Beijing Vital River Laboratory Animal Technology Co., Ltd). Briefly, two groups of animals were administered a single dose of respective compound intravenously (IV, bolus) at 2 mg/kg or orally (PO, by gavage) at 10 mg/kg. Blood samples (approximately 150 µL) were collected via Jugular vein at 5 min (only for IV), 15 min, 30 min, 1 h, 2 h, 4 h, 7 h and 24 h post-dose. Blood samples were placed into tubes containing EDTA-K2 anticoagulant and centrifuged at 3000 rpm for 15 min at 4° C. to separate plasma from the samples. After centrifugation, the resulting plasma was transferred to clean tubes for bioanalysis with LC/MS/MS. The pharmacokinetic parameters were calculated using non-compartmental analysis. The volume of distribution (Vss), half-life (T½) and clearance (CL) were obtained based on the plasma concentration-time curve after IV dose. The peak concentration (Cmax) was recorded directly from experimental observations after PO dose. The area under the plasma concentration-time curve (AUC0-last) was calculated using the linear trapezoidal rule up to the last detectable concentration. The bioavailability (F) was calculated based on the dose normalized AUC0-last after IV and PO dose.
The Vss of a drug represents the degree to which a drug is distributed in body tissue rather than the plasma. Vss is directly proportional with the amount of drug distributed into tissue. A higher Vss indicates a greater amount of tissue distribution.

[2] = target: T1, hERG channel (Homo sapiens, UniProt Q12809); assay: hERG channel inhibition assay (patch-clamp, CHOhERG cells); assay type: cell-based; settings: for pIC50 / IC20: CHOhERG cells, whole-cell patch-clamp; for IC20: human, CHO cells stably expressing hERG (CHOhERG); for hERG IC20 / TLR8 IC50 / hERG IC20 / TLR9 IC50 / hERG IC20 /TLR7 IC50: safety ratio
T1 construct: expressed in transfected cells; host or cells: CHO (Chinese hamster ovary), CHOhERG
T1 sequence (Q12809 whole entry): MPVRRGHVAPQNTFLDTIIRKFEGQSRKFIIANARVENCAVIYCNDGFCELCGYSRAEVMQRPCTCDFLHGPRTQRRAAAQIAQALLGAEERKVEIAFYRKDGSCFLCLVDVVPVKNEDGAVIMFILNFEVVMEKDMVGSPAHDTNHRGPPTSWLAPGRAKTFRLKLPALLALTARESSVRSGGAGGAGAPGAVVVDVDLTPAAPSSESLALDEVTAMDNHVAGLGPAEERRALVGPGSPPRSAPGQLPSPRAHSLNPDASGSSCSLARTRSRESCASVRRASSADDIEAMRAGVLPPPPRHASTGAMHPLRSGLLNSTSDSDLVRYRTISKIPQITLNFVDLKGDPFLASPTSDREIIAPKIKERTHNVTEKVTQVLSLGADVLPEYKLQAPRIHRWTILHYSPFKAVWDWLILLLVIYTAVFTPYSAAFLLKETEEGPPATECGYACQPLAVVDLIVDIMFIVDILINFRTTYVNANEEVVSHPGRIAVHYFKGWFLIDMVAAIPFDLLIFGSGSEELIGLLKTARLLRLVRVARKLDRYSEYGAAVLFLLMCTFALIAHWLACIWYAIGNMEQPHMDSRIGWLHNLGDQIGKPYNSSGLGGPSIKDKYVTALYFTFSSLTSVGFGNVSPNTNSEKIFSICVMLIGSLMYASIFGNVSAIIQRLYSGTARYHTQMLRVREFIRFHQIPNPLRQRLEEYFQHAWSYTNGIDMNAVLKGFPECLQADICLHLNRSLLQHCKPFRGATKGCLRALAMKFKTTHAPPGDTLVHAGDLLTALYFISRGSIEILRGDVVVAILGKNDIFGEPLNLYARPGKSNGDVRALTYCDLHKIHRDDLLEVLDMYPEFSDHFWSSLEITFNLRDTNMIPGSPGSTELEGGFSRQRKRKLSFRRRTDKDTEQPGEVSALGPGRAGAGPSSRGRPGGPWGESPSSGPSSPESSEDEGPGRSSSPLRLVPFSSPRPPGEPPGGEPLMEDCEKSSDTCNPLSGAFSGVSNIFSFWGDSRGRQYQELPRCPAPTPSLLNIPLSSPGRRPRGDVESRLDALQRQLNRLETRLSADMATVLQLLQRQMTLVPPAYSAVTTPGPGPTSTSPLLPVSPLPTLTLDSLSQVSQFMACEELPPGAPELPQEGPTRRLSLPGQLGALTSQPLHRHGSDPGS
Protocol: The hERG K^+ channels were cloned in humans and stably expressed in a CHO (Chinese hamster ovary) cell line. CHOhERG cells were used for patch-clamp (voltage-clamp, whole-cell) experiments. Cells were stimulated by a voltage pattern to activate hERG channels and conduct IKhERG currents (rapid delayed outward rectifier potassium current of the hERG channel). After the cells were stabilized for a few minutes, the amplitude and kinetics of IKhERG were recorded at a stimulation frequency of 0.1 Hz (6 bpm). Thereafter, the test compound was added to the preparation at increasing concentrations. For each concentration, an attempt was made to reach a steady-state effect, usually, this was achieved within 3-10 min at which time the next highest concentration was applied. The amplitude and kinetics of IKhERG are recorded in each concentration of the drug which were compared to the control values (taken as 100%). (references: Redfern WS, Carlsson L, Davis AS, Lynch WG, MacKenzie I, Palethorpe S, Siegl PK, Strang I, Sullivan AT, Wallis R, Camm AJ, Hammond TG. 2003; Relationships between preclinical cardiac electrophysiology, clinical QT interval prolongation and torsade de pointes for a broad range of drugs: evidence for a provisional safety margin in drug development. Cardiovasc. Res. 58:32-45, Sanguinetti MC, Tristani-Firouzi M. 2006; hERG potassium channels and cardiac arrhythmia. Nature 440:463-469, Webster R, Leishman D, Walker D. 2002; Towards a drug concentration effect relationship for QT prolongation and torsades de pointes. Curr. Opin. Drug Discov. Devel. 5:116-26).

| SMILES | F ([1]; dose normalized AUC0-last after IV 2 mg/kg and PO 10 mg/kg) [%] | AUC(0-t) ([1]; rat, IV 2 mg/kg, plasma, read-out: IV AUC0-last) [ng·h/mL] | Cmax ([1]; rat, PO 10 mg/kg, plasma) [ng/mL] | AUC(0-t) ([1]; rat, PO 10 mg/kg, plasma, read-out: PO AUC0-last) [ng·h/mL] | clearance ([1]; rat, plasma, IV 2 mg/kg) [mL/min/kg] | half-life ([1]; rat, plasma, IV 2 mg/kg, read-out: T½ (converted)) [h] | Vd ([1]; rat, plasma, IV 2 mg/kg, read-out: Vss) [L/kg] | pIC50 [2] | IC20 [2] [µM] | hERG IC20 / TLR8 IC50 [2] | hERG IC20 / TLR9 IC50 [2] | hERG IC20 /TLR7 IC50 [2] |
| --- | --- | --- | --- | --- | --- | --- | --- | --- | --- | --- | --- | --- |
| CCc1nc(N2CCN(Cc3cnc(N4CC5(CNCCO5)C4)nc3)CC2)ccc1-c1cc(C)c(=O)n(C)c1 [Example 1, 5-[2-ethyl-6-[4-[[2-(5-oxa-2,8-diazaspiro[3.5]nonan-2-yl)pyrimidin-5-yl]methyl]piperazin-1-yl]-3-pyridyl]-1,3-dimethyl-pyridin-2-one] | 40 | 873 | 151 | 1750 | 37 | 3.78 | 7.4 | < 4.70 | > 10 | >14285.2 | >14.2 | >1052.6 |
| CCc1nc(N2CCN(Cc3ccc(N4CC5(CNCCO5)C4)nc3)CC2)ccc1-c1cc(C)c(=O)n(C)c1 [Example 2, 5-[2-ethyl-6-[4-[[6-(5-oxa-2,8-diazaspiro[3.5]nonan-2-yl)-3 pyridyl]methyl]piperazin-1-yl]-3-pyridyl]-1,3-dimethyl-pyridin-2-one] | – | – | – | – | – | – | – | < 4.70 | > 10 | >33000 | >47.1 | >961.8 |
| CCc1nc(N2CCN(Cc3cnc(N4CC(C)(N)C4)nc3)CC2)ccc1-c1cc(C)c(=O)n(C)c1 [Example 3, 5-[6-[4-[[2-(3-amino-3-methyl-azetidin-1-yl)pyrimidin-5-yl]methyl]piperazin-1-yl]-2-ethyl-3-pyridyl]-1,3-dimethyl-pyridin-2-one] | – | – | – | – | – | – | – | < 4.70 | > 10 | >33000 | >31.4 | >724.6 |
| Cc1cc(-c2ccc(N3CCN(Cc4ccc(N5CCNCC5)cn4)CC3)nc2C(C)C)cn(C)c1=O [Example 7, 5-[2-isopropyl-6-[4-[(5-piperazin-1-yl-2-pyridyl)methyl]piperazin-1-yl]-3-pyridyl]-1,3-dimethyl-pyridin-2-one] | – | – | – | – | – | – | – | < 4.70 | 4.7 | 16000 | 24.4 | 940 |
